In PubChem BioAssay AID248 (DTP/NCI, 2004):
Values joined by “and” are separate entries in the source; they are usually repeats but may differ in a detail not shown here. Equal entries are not always repeated. Toxic doses and inconclusive results are not listed. Cut-off read from the data, not from the text of the source: active = T/C of 150% or more; inactive = T/C below 125%.

Test system: L1210 leukemia ip in BDF1 mice, survival T/C
Assay: NCI In Vivo Anticancer Drug Screen. Data for tumor model L1210 Leukemia (intraperitoneal) in B6D2F1 (BDF1) mice
Conditions: endpoint: mean survival time, higher = longer survival
Summary of the method: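 Read-out is survival time, reported as the treated-group measurement over the vehicle-control measurement.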

[1] = dose: 100.0 mg/kg/injection, schedule: Q04DX003 (ip), vehicle: Klucel (hydroxypropylcellulose) (HPC)
[2] = dose: 200.0 mg/kg/injection, schedule: Q04DX003 (ip), vehicle: Klucel (hydroxypropylcellulose) (HPC)
[3] = dose: 400.0 mg/kg/injection, schedule: Q04DX003 (ip), vehicle: Klucel (hydroxypropylcellulose) (HPC)
[4] = dose: 12.5 mg/kg/injection, schedule: Q04DX003 (ip), vehicle: saline
[5] = dose: 100.0 mg/kg/injection, schedule: Q01DX001 (ip), vehicle: Klucel (hydroxypropylcellulose) (HPC)
[6] = dose: 200.0 mg/kg/injection, schedule: Q01DX001 (ip), vehicle: Klucel (hydroxypropylcellulose) (HPC)
[7] = dose: 400.0 mg/kg/injection, schedule: Q01DX001 (ip), vehicle: Klucel (hydroxypropylcellulose) (HPC)
[8] = dose: 25.0 mg/kg/injection, schedule: Q04DX003 (ip), vehicle: saline
[9] = dose: 50.0 mg/kg/injection, schedule: Q04DX003 (ip), vehicle: saline
[10] = dose: 100.0 mg/kg/injection, schedule: Q01DX009 (ip), vehicle: saline with Tween-80
[11] = dose: 200.0 mg/kg/injection, schedule: Q01DX009 (ip), vehicle: saline with Tween-80
[12] = dose: 100.0 mg/kg/injection, schedule: Q01DX001 (ip), vehicle: saline
[13] = dose: 100.0 mg/kg/injection, schedule: Q01DX001 (ip), vehicle: carboxymethylcellulose (CMC)
[14] = dose: 200.0 mg/kg/injection, schedule: Q01DX001 (ip), vehicle: carboxymethylcellulose (CMC)
[15] = dose: 50.0 mg/kg/injection, schedule: Q01DX001 (ip), vehicle: carboxymethylcellulose (CMC)
[16] = dose: 400.0 mg/kg/injection, schedule: Q01DX001 (ip), vehicle: carboxymethylcellulose (CMC)

Measured: T/C

CC(O)C#CC(C)O (stereo not drawn)
inactive: dose: 12.5 mg/kg/injection, schedule: Q01DX009 (ip), vehicle: Klucel (hydroxypropylcellulose) (HPC) 89 % of control | dose: 12.5 mg/kg/injection, schedule: Q04DX003 (ip), vehicle: Klucel (hydroxypropylcellulose) (HPC) 92 % of control | dose: 25.0 mg/kg/injection, schedule: Q01DX009 (ip), vehicle: Klucel (hydroxypropylcellulose) (HPC) 102 % of control | dose: 25.0 mg/kg/injection, schedule: Q04DX003 (ip), vehicle: Klucel (hydroxypropylcellulose) (HPC) 96 % of control | dose: 50.0 mg/kg/injection, schedule: Q01DX009 (ip), vehicle: Klucel (hydroxypropylcellulose) (HPC) 103 % of control | dose: 50.0 mg/kg/injection, schedule: Q04DX003 (ip), vehicle: Klucel (hydroxypropylcellulose) (HPC) 103 % of control

COc1ccc(/C=C\C(=O)/C=C/c2ccc(OC)cc2)cc1
inactive: dose: 100.0 mg/kg/injection, schedule: Q01DX009 (ip), vehicle: Klucel (hydroxypropylcellulose) (HPC) 98 % of control | [1] 94 % of control | dose: 200.0 mg/kg/injection, schedule: Q01DX009 (ip), vehicle: Klucel (hydroxypropylcellulose) (HPC) 98 % of control | [2] 94 % of control | dose: 400.0 mg/kg/injection, schedule: Q01DX009 (ip), vehicle: Klucel (hydroxypropylcellulose) (HPC) 88 % of control | [3] 100 % of control

Cc1ccc2c[n+]3cc4ccccc4cc3cc2c1
inactive: dose: 1.56 mg/kg/injection, schedule: Q04DX003 (ip), vehicle: saline 93 % of control | dose: 3.12 mg/kg/injection, schedule: Q01DX009 (ip), vehicle: saline 107 % of control | dose: 3.12 mg/kg/injection, schedule: Q04DX003 (ip), vehicle: saline 114 % of control | dose: 6.25 mg/kg/injection, schedule: Q01DX009 (ip), vehicle: saline 105 % of control | dose: 6.25 mg/kg/injection, schedule: Q04DX003 (ip), vehicle: saline 103 % of control | [4] 107 % of control

COc1ccc(Cl)cc1NS(=O)(=O)c1ccc(Cl)cc1[N+](=O)[O-]
inactive: dose: 100.0 mg/kg/injection, schedule: Q01DX009 (ip), vehicle: saline 96 % of control | dose: 200.0 mg/kg/injection, schedule: Q01DX009 (ip), vehicle: saline 94 % of control | dose: 400.0 mg/kg/injection, schedule: Q01DX009 (ip), vehicle: saline 100 % of control

O=S1(=O)CCC/C1=C\c1ccccc1
inactive: [5] 121 % of control | [6] 103 % of control | [7] 101 % of control

NS(=O)(=O)c1ccc(NC(=O)Nc2cccc(CNC(=O)Cc3ccc(Cl)cc3C(=O)O)c2)cc1
inactive: dose: 50.0 mg/kg/injection, schedule: Q01DX001 (ip), vehicle: Klucel (hydroxypropylcellulose) (HPC) 104 % of control | [5] 109 % of control | [6] 90 % of control

Cc1ccc(-c2ccc(-c3ccc(C)cc3)o2)cc1
inactive: [5] 95 % of control | [6] 102 % of control and 90 % of control | [7] 94 % of control

CC(=O)OC1CCC2(C)C(=CCC3C2CCC2(C)C(C(C)N)CCC32)C1 (stereo not drawn)
inactive: dose: 100.0 mg/kg/injection, schedule: Q01DX001 (sc), vehicle: steriod suspending solution 90 % of control | dose: 400.0 mg/kg/injection, schedule: Q01DX001 (sc), vehicle: steriod suspending solution 90 % of control

CCCC1(CN2c3ccccc3Sc3ccccc32)CCN(CC)C1 (stereo not drawn)
inactive: dose: 9.37 mg/kg/injection, schedule: Q01DX009 (ip), vehicle: saline 101 % of control | dose: 12.5 mg/kg/injection, schedule: Q01DX001 (ip), vehicle: saline 97 % of control and 100 % of control | [4] 103 % of control | dose: 18.75 mg/kg/injection, schedule: Q01DX009 (ip), vehicle: saline 95 % of control | dose: 25.0 mg/kg/injection, schedule: Q01DX001 (ip), vehicle: saline 95 % of control | [8] 103 % of control | dose: 37.5 mg/kg/injection, schedule: Q01DX009 (ip), vehicle: saline 92 % of control | dose: 50.0 mg/kg/injection, schedule: Q01DX001 (ip), vehicle: saline 95 % of control and 87 % of control | [9] 97 % of control | dose: 75.0 mg/kg/injection, schedule: Q04DX003 (ip), vehicle: saline 103 % of control

O=C(O)c1ccc([N+](=O)[O-])o1
inactive: [10] 89 % of control | dose: 100.0 mg/kg/injection, schedule: Q04DX003 (ip), vehicle: other 100 % of control | [11] 97 % of control | dose: 200.0 mg/kg/injection, schedule: Q04DX003 (ip), vehicle: other 96 % of control

CC#CS(=O)(=O)c1ccccc1
inactive: [1] 94 % of control | [2] 95 % of control | [3] 98 % of control

C1CCCCCC(C2CCCCCCCCCCC2)CCCCC1
inactive: dose: 25.0 mg/kg/injection, schedule: Q01DX009 (ip), vehicle: acetone 94 % of control | [8] 94 % of control | dose: 50.0 mg/kg/injection, schedule: Q01DX009 (ip), vehicle: acetone 93 % of control | [9] 92 % of control | [12] 92 % of control | dose: 100.0 mg/kg/injection, schedule: Q01DX009 (ip), vehicle: acetone 98 % of control | dose: 100.0 mg/kg/injection, schedule: Q04DX003 (ip), vehicle: saline 92 % of control | dose: 150.0 mg/kg/injection, schedule: Q01DX009 (ip), vehicle: saline 90 % of control | dose: 225.0 mg/kg/injection, schedule: Q01DX009 (ip), vehicle: saline 88 % of control | dose: 335.0 mg/kg/injection, schedule: Q01DX009 (ip), vehicle: saline 93 % of control

CCOC(=O)C(NC(C)=O)(C(=O)OCC)C(=O)c1ccc(Cl)cc1
inactive: [13] 89 % of control | [14] 94 % of control

C[CH2][Pb]([Br])([CH2]C)[CH2]C
inactive: dose: 6.25 mg/kg/injection, schedule: Q01DX009 (ip), vehicle: saline with Tween-80 103 % of control | dose: 12.5 mg/kg/injection, schedule: Q01DX009 (ip), vehicle: saline with Tween-80 103 % of control | dose: 25.0 mg/kg/injection, schedule: Q01DX009 (ip), vehicle: saline with Tween-80 94 % of control and 103 % of control | dose: 25.0 mg/kg/injection, schedule: Q04DX002 (ip), vehicle: saline with Tween-80 93 % of control | dose: 50.0 mg/kg/injection, schedule: Q04DX002 (ip), vehicle: saline with Tween-80 99 % of control | dose: 100.0 mg/kg/injection, schedule: Q04DX002 (ip), vehicle: saline with Tween-80 96 % of control

O=C(Nc1cc(Cl)cc(Cl)c1)C(Cl)Cl
inactive: [15] 117 % of control | [13] 109 % of control | [14] 105 % of control | [16] 109 % of control

O=C(Sc1ccccc1)c1ccccc1
inactive: [15] 105 % of control | [13] 105 % of control | [14] 108 % of control | [16] 100 % of control

CCCCCCCCCCCCCCCCSCCCCCCCCCCCCCCCC
inactive: [10] 104 % of control | [11] 98 % of control

COc1cc([N+](=O)[O-])c2[nH]c(=O)ccc2c1
inactive: [13] 97 % of control | [14] 94 % of control | [16] 97 % of control

OCC(O)C(O)C(O)C1SCCS1 (stereo not drawn)
inactive: [12] 103 % of control | dose: 200.0 mg/kg/injection, schedule: Q01DX001 (ip), vehicle: saline 106 % of control | dose: 400.0 mg/kg/injection, schedule: Q01DX001 (ip), vehicle: saline 104 % of control
